The nature of data set [1]: Saturated solubility of Allo in oils. The conditions noted are these: oil or lipid, thermodynamic from solid, room temperature, mean ± SD, n=3. Format: physicochemical. The protocol:
The solubility of Allo was determined in CAPMUL® MCM EP/NF (monodiglyceride of medium chain fatty acids, commercially available from Abitec Corporation (Columbus, Ohio), CAS Number 91744-32-0, or 26402-22-2, and 26402-26-6), isopropyl myristate, and oleic acid, by adding an excess amount of Allo to 1 mL of each oil in a glass vial. The vial was rocked for 72 h at room temperature. The excessive amount of Allo was filtered through a syringe membrane filter (0.2 μm). The amount of Allo dissolved in each oil was determined using HPLC.
An HPLC analytical method was developed by employing the SHIMADZU LC2010A HT for in vitro and ex vivo evaluation of Allo from microemulsions (MEs). Chromatographic separation was achieved using a PHENOMENEX® KINETEX® Phenyl-hexyl 2.6 μm reverse-phase (150×4.6 mm) column. The mobile phase was a mixture of 0.1% acetic acid in water and methanol, 20:80 (v/v) and flowed at 0.4 ml/min for 15 min The injection volume was 10 μl and the UV detection wavelength was 206 nm. A standard curve was constructed at the concentration range of 7.8-1,000

Data set [2] deals with HaCaT (human skin) cell line. The data set can be described thus: In vitro cell viability (resazurin assay) after treatment of Allo, HaCaT. The class given is cell-based. The conditions noted are these: 72 h. The protocol:
(§1) Cell viability was evaluated in human skin (HaCaT)cell line by performing a resazurin assay after the treatment of Allo. Resazurin is a cell permeable redox indicator, and viable cells with active metabolism can reduce resazurin into resorufin, which is fluorescent (Riss et al., Cell Viability Assays, in Assay Guidance Manual, 2016). The HaCaT cells were grown in optimized Dubelco's Modified Eagle's medium (DMEM) (containing 2 mM of L-glutamine, 2 mM of sodium pyruvate, 4500 mg/L of glucose, and 1500 mg/L of sodium bicarbonate) supplemented with 10% fetal bovine serum (FBS). The TR 146 cells were grown in Ham's F12 medium supplemented with 10% FBS, 1% penicillin-streptomycin, and 0.2% L-Glutamine The RPMI 2650 cells were grown in Eagle's Minimum Essential medium (EMEM) supplemented with 10% FBS, 1% penicillin-streptomycin, and 0.2% amphotericin […]. Cells were plated in a 96-well plate at a density of 5,000 cells per each well (100 μl) and incubated at 37° C. and 5% CO2 for 48 h. Allo was prepared in cell culture media with the addition of 1% (v/v) ethanol to aid Allo solubility. The final concentration range of Allo treated to the cells was 0.001-10 μM. […] The cell viability was measured using Synergy H1 Multi-Mode Reader (BioTek Instruments Inc., Winooski, Vt.) at the excitation wavelength of 544 nm and emission wavelength of 590 nm.
Background: The colour change of resazurin is a common sign of viable cells or microbes.

Data set [3] concerns TR 146 (human buccal) cell line. The experiment in a line: In vitro cell viability (resazurin assay) after treatment of Allo, TR 146. Format: cell-based. To be noted: TR 146, Allo 0.001-10 μM, 72 h. As to the method:
as §1

Data set [4] relates to RPMI 2650 (human nasal) cell line. The data set can be described thus: In vitro cell viability (resazurin assay) after treatment of Allo, RPMI 2650. Format: cell-based. The conditions noted are these: RPMI 2650, Allo 0.001-10 μM, 72 h. The protocol:
as §1

A short description of data set [5]: Saturated solubility of Allo in receptor media. Format: physicochemical. To be noted: aqueous with cosolvent or surfactant or cyclodextrin, thermodynamic from solid, 32° C., n=3, read-out: Solubility of Allo in receptor medium. As to the method:
To select a receptor medium placed in the receptor compartment of the Franz chamber, the saturated solubilities of Allo in various media were determined. PBS at pH 7.4 has been commonly used to mimic the physiological condition. […] An excessive amount of Allo was added to 1 ml of the following media: (1) 10% (w/v) 2-hydroxypropyl-β-cyclodextrin (HβCD), (2) 40% (v/v) isopropyl alcohol (IPA), (3) 30% (v/v) CREMOPHOR EL®, and (4) 20% (v/v) IPA and 25% (v/v) CREMOPHOR EL®. The solutions were kept under constant magnetic stirring at 600 rpm for 24 h and placed in an incubator at 32° C. After 24 h, the excessive amount of Allo was filtered through a 0.2 μm syringe membrane and the filtered solution was injected into the HPLC for analysis.

As a reminder, the solubility is the dissolved amount per volume that the medium holds.

≈ marks a conversion by molar mass, not a printed value. Like-named read-outs stand apart in the source and are kept apart here.

Take `CC(=O)[C@H]1CC[C@H]2[C@@H]3CC[C@H]4C[C@H](O)CC[C@]4(C)[C@H]3CC[C@]12C` [Allo, 3α-hydroxy-5α-pregnan-20-one]: the figures for the solubility at 72 h in data set [1] (in CAPMUL® MCM), in data set [1] (in isopropyl myristate) and in data set [1] (in oleic acid) were 28400 ± 1920 µg/mL (≈ 89 mM), 8880 ± 170 µg/mL (≈ 27.9 mM) and 17800 ± 3970 µg/mL (≈ 55.9 mM), respectively. The Viability percent range is on record as 84.16-102.70% in data set [2] (HaCaT, Allo 0.001-10 μM); 93.89-112.44% in data set [3]; 107.32-113.60% in data set [4]. Moreover, the “Viability compared to the control group” value in data set [2] (stated for the tested cell lines (HaCaT, TR 146, RPMI 2650), control without Allo) is listed as “No significant decrease in viability”. For the same compound, the solubility at 24 h in data set [5] (PBS (pH 7.4) containing 10% (w/v) HβCD) turned out to be 3450 ± 30 µg/mL (≈ 10.8 mM); in data set [5] (PBS (pH 7.4) containing 20% (v/v) IPA and 25% (v/v) CREMOPHOR EL®), 3350 ± 120 µg/mL (≈ 10.5 mM); in data set [5] (PBS (pH 7.4) containing 30% (v/v) CREMOPHOR EL®) it was 1990 ± 170 µg/mL (≈ 6.25 mM); in data set [5] (PBS (pH 7.4) containing 40% (v/v) IPA) it was 1130 ± 130 µg/mL (≈ 3.55 mM).

For the origin of these results see patent US20220226349A1, “TOPICAL NEUROSTEROID FORMULATIONS” (Arizona Board of Regents on Behalf of the University of …, priority 2019, published 2022).
